pEC50: −log10 of the molar value.
How the values were obtained:
[1] = target: T1, KCNQ2/3 channels (Homo sapiens, UniProt O43525+O43526); test: Two-electrode voltage-clamp of KCNQ2/3 channels expressed in Xenopus laevis oocytes; format: cell-based; details: for Non-normalized tail current V0.5 / Normalized tail current V0.5 / Slope: KCNQ2/3
Description: (§1) cRNA transcripts encoding human KCNA1, KCNQ1, KCNQ2, KCNQ3, KCNQ4, or KCNQ5 were generated by in vitro transcription using the T7 polymerase message machine kit (Thermo Fisher Scientific), after vector linearization, from cDNA sub-cloned into plasmids incorporating X. laevis β-globin 5′ and 3′ UTRs flanking the coding region to enhance translation and cRNA stability. cRNA was quantified by spectrophotometry. Mutant cDNAs were generated by site-directed mutagenesis using a QuikChange kit according to manufacturer’s protocol (Stratagene, San Diego, CA) and corresponding cRNAs prepared as above. Defolliculated stage V and VI X. laevis oocytes (Ecocyte Bioscience, Austin, TX) were injected with Kv channel α subunit cRNAs (10 ng total per oocyte). Oocytes were incubated at 16 °C in Barth’s saline solution (Ecocyte) containing penicillin and streptomycin, with daily washing, for 3–5 days prior to two-electrode voltage-clamp (TEVC) recording.
(§2) Oocytes were placed in a small-volume oocyte bath (Warner) and viewed with a dissection microscope. Chemicals were sourced from Sigma. Bath solution was (in mM): 96 NaCl, 4 KCl, 1 MgCl2, 1 CaCl2, 10 HEPES (pH 7.6). […] MTX (DMSO), sorbic acid (ethanol), and glutaconic acid (molecular grade H2O) were stored at −20 °C as 1 M stocks. Oleamide was stored as a 1 mM stock in ethanol at 4 °C. Palmitic acid was conjugated with bovine serum albumin as a 1 mM stock and stored at −20 °C. All compounds were diluted to working concentrations each experimental day. All compounds were introduced to the recording bath via gravity perfusion at a constant flow of 1 ml/min for 3 min prior to recording. Pipettes were of 1–2 MΩ resistance when filled with 3 M KCl. Currents were recorded in response to pulses between −80 and +40 mV at 20 mV intervals, or a single pulse to +40 mV, from a holding potential of −80 mV, to yield current–voltage relationships, current magnitude, and for quantifying activation rate. TEVC data analysis was performed with Clampfit10.2 (Molecular Devices) and Graphpad Prism software (GraphPad, San Diego, CA, USA); values are stated as mean ± SEM. Normalized tail currents were plotted versus prepulse voltage and fitted with a single Boltzmann function:1 g=A1-A2/1+expV12-Vy+A2, where g is the normalized tail conductance, A1 is the initial value at −∞, A2 is the final value at +∞, V1/2 is the half-maximal voltage of activation, and Vs the slope factor. Activation and deactivation kinetics were fitted with single-exponential functions.

[2] = target: T1, KCNQ2/3 channels; details: high affinity partial agonist; previously found; cited from earlier work
[3] = target: KCNA1 (Homo sapiens, UniProt Q09470); test: Two-electrode voltage-clamp of KCNA1 in Xenopus oocytes; format: cell-based
KCNA1, sequence (Q09470 whole entry): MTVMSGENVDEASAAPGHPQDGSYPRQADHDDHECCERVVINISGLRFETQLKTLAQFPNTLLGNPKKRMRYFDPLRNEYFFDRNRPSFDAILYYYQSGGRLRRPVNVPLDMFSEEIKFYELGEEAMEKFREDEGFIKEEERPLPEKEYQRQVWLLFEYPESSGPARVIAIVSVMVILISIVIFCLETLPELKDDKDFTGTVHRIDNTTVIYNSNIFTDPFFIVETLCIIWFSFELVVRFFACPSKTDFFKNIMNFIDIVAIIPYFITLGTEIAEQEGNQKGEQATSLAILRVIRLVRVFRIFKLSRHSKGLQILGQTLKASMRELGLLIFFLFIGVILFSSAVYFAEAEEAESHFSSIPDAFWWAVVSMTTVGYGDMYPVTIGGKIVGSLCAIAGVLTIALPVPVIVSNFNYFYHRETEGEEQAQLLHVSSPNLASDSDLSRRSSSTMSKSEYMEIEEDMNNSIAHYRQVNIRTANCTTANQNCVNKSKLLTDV
Description: as §1
as §2, with “TEVC data analysis was performed with Clampfit10.2 (Molecular Devices) and Graphpad Prism software (GraphPad, San Diego, CA, USA); values are stated as mean ± SEM. Normalized tail currents were plotted versus prepulse voltage and fitted with a single Boltzmann function:1 g=A1-A2/1+expV12-Vy+A2, where g is the normalized tail conductance, A1 is the initial value at −∞, A2 is the final value at +∞, V1/2 is the half-maximal voltage of activation, and Vs the slope factor. Activation and deactivation kinetics were fitted with single-exponential functions.” left out

[4] = tested on: pentylene tetrazole-induced seizures; test: PTZ chemoconvulsant assay; format: in vivo, mouse; details: mice
Description: We compared anticonvulsant activities of test compounds in male C57BL/6 mice (Charles River) aged 2–3 months. Mice were housed and used according to the recommendations in the Guide for the Care and Use of Laboratory Animals of the National Institutes of Health (NIH Publication, 8th edition, 2011). The study protocol was approved by the Institutional Animal Care and Use Committee of University of California, Irvine, which confirmed that all relevant ethical regulations were adhered to. Chemicals were sourced from Sigma (St. Louis, MO, USA) . A pentylene tetrazole (PTZ) chemoconvulsant assay was used[54]. […] Following the PTZ injection, mice were caged individually and an observer (GWA) blinded to the drug used recorded, over 20 min, clonic and tonic seizure incidence, and seizure-related mortality.
All values are expressed as mean ± SEM. Chi-squared analysis was used to compare seizure-related mortality in mice. One-way ANOVA was applied for all other tests; if multiple comparisons were performed, a post-hoc Tukey’s HSD test was performed following ANOVA. All p-values were two-sided. Statistical significance was defined as p < 0.05.

[5] = target: KCNQ2-W236L/KCNQ3-W265L channels (Homo sapiens, UniProt O43525+O43526, W236L/W265L); test: Two-electrode voltage-clamp of W236L-Q2/W265L-Q3 mutant channels in Xenopus oocytes; format: cell-based; details: 100 µM
Description: as §1, §2

[6] = target: T2, KCNQ2 (Homo sapiens, UniProt O43526); test: Two-electrode voltage-clamp of homomeric KCNQ2 in Xenopus oocytes; format: cell-based; details: KCNQ2; 1 µM
Description: as §1, §2

[7] = target: KCNQ3* (KCNQ3-A315T) (Homo sapiens, UniProt O43525, A315T); test: cell-based; format: cell-based; details: KCNQ3*; 1 µM
KCNQ3* (KCNQ3-A315T), sequence (O43525 whole entry A315T, looked up): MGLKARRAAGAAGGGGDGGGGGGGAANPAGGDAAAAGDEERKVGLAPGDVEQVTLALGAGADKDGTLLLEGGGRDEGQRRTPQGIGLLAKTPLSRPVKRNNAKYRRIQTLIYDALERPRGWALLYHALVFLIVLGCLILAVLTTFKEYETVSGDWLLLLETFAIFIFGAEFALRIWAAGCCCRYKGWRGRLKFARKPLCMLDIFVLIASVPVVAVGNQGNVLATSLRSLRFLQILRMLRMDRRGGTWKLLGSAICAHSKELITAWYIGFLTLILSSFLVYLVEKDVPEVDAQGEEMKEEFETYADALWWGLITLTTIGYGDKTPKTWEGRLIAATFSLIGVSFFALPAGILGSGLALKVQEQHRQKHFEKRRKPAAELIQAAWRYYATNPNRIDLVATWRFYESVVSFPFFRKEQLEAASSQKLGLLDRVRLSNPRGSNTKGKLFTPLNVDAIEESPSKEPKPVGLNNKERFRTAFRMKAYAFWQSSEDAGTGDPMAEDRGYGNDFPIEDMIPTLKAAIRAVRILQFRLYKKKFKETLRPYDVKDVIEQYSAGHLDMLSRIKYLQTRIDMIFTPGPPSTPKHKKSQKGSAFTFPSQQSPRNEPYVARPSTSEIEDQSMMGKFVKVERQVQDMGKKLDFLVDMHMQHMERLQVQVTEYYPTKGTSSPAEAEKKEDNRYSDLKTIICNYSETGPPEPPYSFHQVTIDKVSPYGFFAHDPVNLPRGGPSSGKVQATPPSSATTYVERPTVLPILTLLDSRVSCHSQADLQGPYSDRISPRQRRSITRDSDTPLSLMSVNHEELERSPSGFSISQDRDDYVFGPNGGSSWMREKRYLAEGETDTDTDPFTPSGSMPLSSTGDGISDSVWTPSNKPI
Description: as §1, §2

[8] = target: KCNQ4 (Homo sapiens, UniProt P56696); test: cell-based; format: cell-based; details: KCNQ4; 1 µM
Description: as §1, §2

[9] = target: KCNQ5 (Homo sapiens, UniProt Q9NR82); test: cell-based; format: cell-based; details: KCNQ5; 1 µM
Description: as §1, §2

[10] = target: T2, KCNQ2; design: method as in PMID 11466425; details: 10 µM RTG; cited from earlier work
[11] = tested on: KCNQ2–5; details: cited from earlier work

Q: Which “effect of GABOB on IVA effects on KCNQ2/3” value ([1]; GABOB 100 µM with IVA 500 µM) does the source give for NCC(O)CC(=O)O (stereo not drawn) [GABOB, γ-amino-β-hydroxybutyric acid, reference compound] here?
A: The value was “highly effective at competing out effects of IVA”.

Q: And the “effect of GABOB on MTX effects on KCNQ2/3” value ([1]; GABOB 100 µM with MTX 30 µM)?
A: Its value is “only partially diminishes”.

Q: And the pEC50 [2]?
A: Its pEC50 is 6.92.

Q: With CC(C)CC(=O)O [IVA, isovaleric acid] as the compound, how does the Slope ([3]; KCNA1 (table title), 500 µM) read?
A: Its Slope is 6.9 ± 1.1 mV.

Q: And the “effect on KCNA1 currents” value ([3]; MTX concentration not given, IVA 500 µM)?
A: The value was “did not alter currents”.

Q: And the clonic seizure incidence ([4]; 10 mg/kg i.p. alone)?
A: Its clonic seizure incidence is “neither compound reduced clonic seizures alone”.

Q: What about the clonic seizure incidence ([4]; 20 mg/kg i.p., 30 min before 80 mg kg−1 PTZ) of the same compound?
A: Its clonic seizure incidence is “no effect”.

Q: And the “suppression of PTZ-induced tonic seizures” value ([4]; individually)?
A: The value was “ineffective”.

Q: Which “effect on voltage dependence of KCNQ2/3 activation (initial screen)” value ([1]; 100 µM, tail currents at −30 mV) does the source give for Oc1ccccc1S [2-Mercaptophenol, 2-mercaptophenol] here?
A: The value was “positive-shifted”.

Q: What about the “effect of 2-mercaptophenol on ability of MTX to activate KCNQ2/3” value ([1]; 2-mercaptophenol 100 µM with MTX 30 µM) of the same compound?
A: The value was “did not alter”.

Q: What about the “Non-normalized tail current V0.5” value ([1]; 0.01 µM) of the same compound?
A: The value was -37.2 ± 3.7 mV.

Q: What about the “Normalized tail current V0.5” value ([1]; 0.01 µM) of the same compound?
A: Its value is -37.7 ± 1.5 mV.

Q: And the Slope ([1]; 0.01 µM)?
A: Its Slope is 7.4 ± 1.6 mV.

Q: What about the “Non-normalized tail current V0.5” value ([1]; 0.1 µM) of the same compound?
A: The value was -40.9 ± 3.2 mV.

Q: What about the “Normalized tail current V0.5” value ([1]; 0.1 µM) of the same compound?
A: The value was -43.4 ± 3.6 mV.

Q: And the Slope ([1]; 0.1 µM)?
A: The Slope was 5.4 ± 1.2 mV.

Q: What about the “Non-normalized tail current V0.5” value ([1]; 1 µM) of the same compound?
A: Its value is -43.2 ± 2.6 mV.

Q: What about the “Normalized tail current V0.5” value ([1]; 1 µM) of the same compound?
A: The value was -43.6 ± 0.8 mV.

Q: What about the Slope ([1]; 1 µM) of the same compound?
A: The Slope was 6.4 ± 0.9 mV.

Q: What about the “Non-normalized tail current V0.5” value ([1]; 10 µM) of the same compound?
A: The value was -43.2 ± 2.8 mV.

Q: And the “Normalized tail current V0.5” value ([1]; 10 µM)?
A: Its value is -43.7 ± 1.1 mV.

Q: What about the Slope ([1]; 10 µM) of the same compound?
A: Its Slope is 7.4 ± 1.1 mV.

Q: And the “Non-normalized tail current V0.5” value ([1]; 100 µM)?
A: Its value is -34.5 ± 4.6 mV.

Q: And the “Normalized tail current V0.5” value ([1]; 100 µM)?
A: Its value is -29.5 ± 2.5 mV.

Q: What about the Slope ([1]; 100 µM) of the same compound?
A: Its Slope is 5.0 ± 1.2 mV.

Q: And the “Non-normalized tail current V0.5” value ([1]; 300 µM)?
A: Its value is -22.5 ± 7.2 mV.

Q: What about the “Normalized tail current V0.5” value ([1]; 300 µM) of the same compound?
A: The value was -19.8 ± 1.4 mV.

Q: And the Slope ([1]; 300 µM)?
A: Its Slope is 8.3 ± 0.9 mV.

Q: What about the “concentration at which KCNQ2/3 inhibition begins” value ([1]; activating at lower concentrations) of the same compound?
A: Its value is ~ 100 µM.

Q: And the “sensitivity of KCNQ2-W236L/KCNQ3-W265L channels” value [5]?
A: The value was “insensitive”.

Q: And the “Non-normalized tail current V0.5” value ([5]; W236L-Q2/W265L-Q3)?
A: Its value is -53.8 ± 1.7 mV.

Q: What about the “Normalized tail current V0.5” value ([5]; W236L-Q2/W265L-Q3) of the same compound?
A: Its value is -51.0 ± 4.2 mV.

Q: What does the source list for CCOC(=O)Nc1ccc(NCc2ccc(F)cc2)cc1N [Retigabine, retigabine, reference compound]?
A: effects on KCNQ2/3 ([1]; 1 µM alone): negligible effects; Non-normalized tail current V0.5 ([1]; 1 µM): -41.7 ± 2.3 mV; Normalized tail current V0.5 ([1]; 1 µM): -41.9 ± 0.7 mV; Non-normalized tail current V0.5 ([1]; 10 µM): -61.8 ± 4.8 mV; Normalized tail current V0.5 ([1]; 10 µM): -61.4 ± 1.1 mV; Slope ([1]; 10 µM): 6.7 ± 1.1 mV; shift of KCNQ2/3 activation V0.5 ([1]; RTG 10 µM): −13 mV; Non-normalized tail current V0.5 [6]: -51.6 ± 6.6 mV; Normalized tail current V0.5 [6]: -51.7 ± 0.7 mV; Non-normalized tail current V0.5 [7]: -63.9 ± 7.7 mV; Normalized tail current V0.5 [7]: -61.9 ± 2.2 mV; Non-normalized tail current V0.5 [8]: -10.2 ± 7.5 mV; Normalized tail current V0.5 [8]: -9.7 ± 1.1 mV; Non-normalized tail current V0.5 [9]: -45.8 ± 2.8 mV; Normalized tail current V0.5 [9]: -46.0 ± 0.9 mV; shift in midpoint voltage of activation [10]: −24 mV; order of potency across KCNQ isoforms [11]: KCNQ3 > KCNQ2/3 > KCNQ2 > KCNQ4 > KCNQ5

Q: Which “effect on MTX-activated KCNQ2/3 current” value ([1]; wash-in of MTX followed by XE991, −60 mV) does the source give for O=C1c2ccccc2C(Cc2ccncc2)(Cc2ccncc2)c2ccccc21 [XE991, reference compound] here?
A: Its value is “rapidly inhibited”.

Q: Which “Non-normalized tail current V0.5” value ([1]; 100 µM) does the source give for C/C=C/C=C/C(=O)O [Sorbic Acid, sorbic acid] here?
A: The value was -39.9 ± 3.0 mV.

Q: What about the “Normalized tail current V0.5” value ([1]; 100 µM) of the same compound?
A: The value was -39.9 ± 0.9 mV.

Q: What about the Slope ([1]; 100 µM) of the same compound?
A: The Slope was 4.2 ± 0.9 mV.

Source: article PMC6155021, “Ancient and modern anticonvulsants act synergistically in a KCNQ potassium channel binding pocket” (Nature Communications, 2018)
